Measurements as given in patent US20140090094A1, “MODULATORS OF SLC22A7” (BAYER INTELLECTUAL PROPERTY GmbH, priority 2011, published 2014).

Experiments:
OAT2r [1] = target: T1, OAT2r (Rattus norvegicus, UniProt Q5RLM2); assay: 1 min uptake into 293 cells expressing OAT2 from rat; type: cell-based; settings: 1 min uptake, 0.1 μmol/l radiotracer or 10 μmol/l unlabeled compound;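 note: uptake at 37 °C, read by liquid scintillation counting or LC-ESI-MS/MS, carrier-mediated part as induced-minus-uninduced expression difference corrected for baseline content, protein by BCA assay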
T1 construct: expressed in transfected cells
T1 sequence (Q5RLM2 1-535): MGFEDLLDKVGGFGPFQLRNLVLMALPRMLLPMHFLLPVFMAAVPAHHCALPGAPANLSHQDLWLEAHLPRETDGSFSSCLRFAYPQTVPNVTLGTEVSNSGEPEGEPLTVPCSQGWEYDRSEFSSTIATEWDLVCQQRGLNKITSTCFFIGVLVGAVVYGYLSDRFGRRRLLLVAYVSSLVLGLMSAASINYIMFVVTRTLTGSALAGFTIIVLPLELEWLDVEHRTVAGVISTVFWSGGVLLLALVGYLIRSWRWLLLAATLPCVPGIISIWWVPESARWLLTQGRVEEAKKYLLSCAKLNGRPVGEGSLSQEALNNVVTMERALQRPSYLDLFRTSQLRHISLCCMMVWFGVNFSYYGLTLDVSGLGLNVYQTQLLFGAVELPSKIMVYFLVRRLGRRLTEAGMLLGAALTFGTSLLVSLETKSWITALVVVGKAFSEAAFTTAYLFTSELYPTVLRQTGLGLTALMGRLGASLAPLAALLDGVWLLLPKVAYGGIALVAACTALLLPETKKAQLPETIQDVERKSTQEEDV
Description: (§1) Cells were used for uptake experiments at a confluence of at least 70%. Uptake was measured at 37° C. […] After preincubation for at least 20 minutes in 4 ml of uptake buffer, the buffer was replaced with 2 ml of substrate in uptake buffer. The total substrate concentration if not indicated otherwise was 0.1 μmol/l for radiotracer assays and 10 μmol/l for unlabeled compounds. Incubation was stopped after 1 min by rinsing the cells four times each with 4 ml ice-cold uptake buffer. Radioactivity was determined, after cell lysis with 0.1% v/v Triton X-100 in 5 mmol/l TRIS-HCl pH 7.4, by liquid scintillation counting. For LCelectrospray ionization-MS/MS analysis, cells were lysed with methanol and stored at −20° C.
(§2) After centrifugation (1 min, 16000×g, 20° C.) of thawed lysates, 100 μl of the supernatant was mixed with either 10 μl unlabeled MPP+ iodide (0.5 ng/μl) or biphenyl-4-carboxylic acid (Sigma-Aldrich) as internal standard. […] Atmospheric pressure ionization with positive or negative electrospray was used. For quantification (scan time 150 ms), the optimal collision energy for argon-induced fragmentation in the second quadrupole was determined for each analyte. […] Linear calibration curves were constructed from at least six standards which were prepared using control cell lysates as solvent. Sample analyte content was calculated from the analyte response ratio and the slope of the calibration curve, obtained by linear regression. With LC-MS quantitation, solute content of cell lysates was determined for 4 conditions (paired dishes, incubation time 1 min): a) transporter expression on, uptake buffer; b) expression off, uptake buffer; c) expression on, substrate in uptake buffer; d) expression off, substrate in uptake buffer. Acute uptake mediated by heterologously expressed carrier was then calculated as (c−a)−(d−b). This approach takes into account endogenous solute content and non-specific uptake. Protein was measured by the BCA assay (Pierce) with bovine serum albumin as standard. The protein content of MS samples was estimated from 3 matched cell dishes.

OAT2r [2] = target: T1, OAT2r; assay: 24 h accumulation in lysates of OAT2r-expressing versus control cells (LC-MS/MS); type: cell-based; settings: for increase in OAT2r cell lysates versus control cells (factor f): 24 h incubation, compound at 100 μmol/l
Description: A substrate search by LC-MS difference shading was performed with 293 cells stably transfected to express OAT2 from rat. […] To verify that trigonelline is directly transported by OAT2 and not just increased indirectly, initial rates of uptake (1 min, 37° C.) of trigonelline (10 μmol/l) were determined by LC-MS/MS.
With trigonelline as substrate lead, compounds wholly or partly related in structure were analyzed for transport by OAT2 from rat.
After centrifugation (1 min, 16000×g, 20° C.) of thawed lysates, 100 μl of the supernatant was mixed with either 10 μl unlabeled MPP+ iodide (0.5 ng/μl) or biphenyl-4-carboxylic acid (Sigma-Aldrich) as internal standard. Of this mixture, […] were analyzed by LCMS/MS on a triple quadrupole mass spectrometer (4000 Q TRAP, Applied Biosystems, Darmstadt, Germany). […] Atmospheric pressure ionization with positive or negative electrospray was used. For quantification (scan time 150 ms), the optimal collision energy for argon-induced fragmentation in the second quadrupole was determined for each analyte. […] Linear calibration curves were constructed from at least six standards which were prepared using control cell lysates as solvent. Sample analyte content was calculated from the analyte response ratio and the slope of the calibration curve, obtained by linear regression. With LC-MS quantitation, solute content of cell lysates was determined for 4 conditions ([…]): a) transporter expression on, uptake buffer; b) expression off, uptake buffer; c) expression on, substrate in uptake buffer; d) expression off, substrate in uptake buffer. Acute uptake mediated by heterologously expressed carrier was then calculated as (c−a)−(d−b). This approach takes into account endogenous solute content and non-specific uptake. Protein was measured by the BCA assay (Pierce) with bovine serum albumin as standard. The protein content of MS samples was estimated from 3 matched cell dishes.

OAT2h = target: T2, OAT2h (Homo sapiens, UniProt Q9Y694); assay: 1 min uptake into 293 cells expressing OAT2 from human; type: cell-based; settings: radiotracer
T2 construct: expressed in transfected cells; host or cells: 293 cells (HEK-293), pEBTetD/OAT2h, doxycycline-inducible
T2 sequence (Q9Y694 1-546 isoform Q9Y694-2): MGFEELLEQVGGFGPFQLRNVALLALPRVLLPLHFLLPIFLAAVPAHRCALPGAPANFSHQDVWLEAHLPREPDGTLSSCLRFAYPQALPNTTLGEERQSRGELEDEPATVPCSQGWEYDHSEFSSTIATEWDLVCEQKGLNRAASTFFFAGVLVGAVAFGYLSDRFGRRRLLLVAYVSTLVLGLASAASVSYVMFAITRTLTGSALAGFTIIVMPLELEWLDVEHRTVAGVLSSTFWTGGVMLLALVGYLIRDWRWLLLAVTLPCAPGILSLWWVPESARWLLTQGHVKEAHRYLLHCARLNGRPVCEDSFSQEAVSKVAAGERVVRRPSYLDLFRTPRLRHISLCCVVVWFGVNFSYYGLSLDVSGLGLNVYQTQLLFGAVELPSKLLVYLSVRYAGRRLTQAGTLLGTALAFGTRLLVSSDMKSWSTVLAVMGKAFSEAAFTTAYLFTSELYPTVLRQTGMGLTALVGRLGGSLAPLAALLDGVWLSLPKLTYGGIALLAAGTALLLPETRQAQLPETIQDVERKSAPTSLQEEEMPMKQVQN
Description: as §1, §2

OAT2r [3] = target: T1, OAT2r; assay: trans-stimulation of efflux of 3H-orotic acid via OAT2r; type: cell-based; settings: 1 mmol/l compound in uptake buffer, 1 min, preloaded cells
[4] = substrate: O=C(O)c1cc(=O)[nH]c(=O)[nH]1; assay: cells, lysate or membranes; settings: other: saturation of OAT2r-mediated uptake, 1 min

| Molecule | transport by OAT2r (in words) (OAT2r [1]) | increase in OAT2r cell lysates versus control cells (factor f) (OAT2r [2]) | also measured |
| --- | --- | --- | --- |
| C[n+]1cccc(C(N)=O)c1 [1-methylnicotinamide] | no transport |  |  |
| Nc1ccccc1C(=O)O [2-aminobenzoic acid] | no transport | 1.1 |  |
| CCN(CC)CCC(=O)O [3-(diethylamino)propionic acid] |  | 1.1 |  |
| Nc1cccc(C(=O)O)c1 [3-aminobenzoic acid] | no transport | 1.4 |  |
| NC(=O)CC[C@H](N)C(=O)O [3H-glutamine, glutamine] |  |  | uptake by OAT2h (in words) (OAT2h): no uptake |
| Nc1ccc(C(=O)O)cc1 [4-aminobenzoic acid] | no transport | 1.1 |  |
| NCC(=O)CCC(=O)O [5-aminolevulinic acid] | no transport |  |  |
| O=C(O)c1[nH]c(=O)[nH]c(=O)c1F [5-fluoroorotic acid] | transported efficiently |  |  |
| O=C1CC[C@@H](C(=O)O)N1 [5-oxoproline] | no transport |  |  |
| C[N+](C)(C)C[C@H](O)CC(=O)[O-] [L-carnitine] |  | 1.0 |  |
| O=C1C[C@@H](C(=O)O)NC(=O)N1 [L-dihydroorotic acid] | no transport |  |  |
| O=C(O)[C@@H]1CCCN1 [L-proline] | no transport |  |  |
| O=C(O)c1cccnc1C(=O)O [Quinolinic acid] |  | 2.7 | difference in lysate content between OAT2r and control cells (in words) (OAT2r [2]; up to 1 h incubation time): virtually no difference |
| O=C1CC(=O)NC(=O)N1 [barbituric acid] | no transport |  |  |
| CN(CC(=O)O)C(=N)N [creatine] | no transport |  |  |
| CC1=NCC[C@@H](C(=O)O)N1 [ectoine] |  | 1.2 |  |

| Molecule | transport by OAT2r (in words) (OAT2r [1]) | increase in OAT2r cell lysates versus control cells (factor f) (OAT2r [2]) | also measured |
| --- | --- | --- | --- |
| NCC1(CC(=O)O)CCCCC1 [gabapentin] |  | 1.2 |  |
| C[N+](C)(C)CC(=O)[O-] [glycine betaine] |  | 1.0 |  |
| N=C(N)NCC(=O)O [guanidinoacetic acid] | no transport |  |  |
| O=C(O)CC1NC(=O)NC1=O (stereo not shown) [hydantoin-5-acetic acid] | no transport |  |  |
| O=C(O)c1c[nH]c(=O)[nH]c1=O [isoorotic acid] | transported efficiently |  |  |
| O=C(O)c1cc(=O)c2ccccc2[nH]1 [kynurenic acid] | no transport |  |  |
| CC(O)C(=O)O (stereo not shown) [lactate] |  |  | trans-stimulation of efflux of 3H-orotic acid (in words) (OAT2r [3]): rejects |
| O=C(O)CC(O)C(=O)O (stereo not shown) [malate] |  |  | trans-stimulation of efflux of 3H-orotic acid (in words) (OAT2r [3]): rejects |
| NC(=O)c1cccnc1 [nicotinamide] | no transport | no significant increase |  |
| O=C(O)c1ccc[n+]([C@@H]2O[C@H](COP(=O)(O)O)[C@@H](O)[C@H]2O)c1 [nicotinic acid mononucleotide] | no transport |  |  |
| O=C([O-])c1ccc[n+]([C@@H]2O[C@H](CO)[C@@H](O)[C@H]2O)c1 [nicotinic acid riboside] | transported slightly more efficiently than trigonelline |  |  |
| O=C(O)c1cccnc1 [nicotinic acid] | no transport | no significant increase |  |
| Cc1cc2nc3c(=O)[nH]c(=O)nc-3n(C[C@H](O)[C@H](O)[C@H](O)CO)c2cc1C [riboflavin] | no transport | 1.2 |  |
| C[N+]1(C)CCC[C@H]1C(=O)[O-] [stachydrine] | no transport | 1.2 |  |
| Cc1ncc(C[n+]2csc(CCO)c2C)c(N)n1 [thiamine] | no transport |  |  |
| OAT2r (Rattus norvegicus) (protein) MGFEDLLDKVGGFGPFQLRNLVLMALPRMLLPMHFLLPVFMAAVPAHHCALPGAPANLSHQDLWLEAHLPRETDGSFSSCLRFAYPQTVPNVTLGTEVSNSGEPEGEPLTVPCSQGWEYDRSEFSSTIATEWDLVCQQRGLNKITSTCFFIGVLVGAVVYGYLSDRFGRRRLLLVAYVSSLVLGLMSAASINYIMFVVTRTLTGSALAGFTIIVLPLELEWLDVEHRTVAGVISTVFWSGGVLLLALVGYLIRSWRWLLLAATLPCVPGIISIWWVPESARWLLTQGRVEEAKKYLLSCAKLNGRPVGEGSLSQEALNNVVTMERALQRPSYLDLFRTSQLRHISLCCMMVWFGVNFSYYGLTLDVSGLGLNVYQTQLLFGAVELPSKIMVYFLVRRLGRRLTEAGMLLGAALTFGTSLLVSLETKSWITALVVVGKAFSEAAFTTAYLFTSELYPTVLRQTGLGLTALMGRLGASLAPLAALLDGVWLLLPKVAYGGIALVAACTALLLPETKKAQLPETIQDVERKSTQEEDV |  |  | Km [4]: 200 (95% confidence interval: 160-240) μmol/l |
